These results are taken from patent publication US20100115663A1, “Acetyl-CoA Carboxylase Herbicide Resistant Sorghum” (priority 2007, published 2010).

Test [1] has as its system Bol-71 wild sorghum genotype. As to the kind of experiment: Greenhouse herbicide spray selection, Bol-71. Format: in vivo. An excerpt: (§1) Seeds of 83 wild sorghum populations from Bolivia were planted in a greenhouse for comparison with Tx2783, an herbicide susceptible elite sorghum genotype. Wild sorghum genotypes were planted in flats containing MetroMix 360 potting soil (Sun Gro) and greenhouse grown. Tx2783 was planted with the wild accessions in each flat for comparison. In one selection using clethodim, plants were sprayed with 0.09 lb ai clethodim acre^−1 at 18 days after planting. […] In one selection using fluazifop-P, flats with Tx2783 and wild accessions were sprayed with a rate of 0.12 lb ai fluazifop-P acre^−1 at 18 days after planting and with 0.36 lb ai fluazifop-P acre^−1 at 32 days after planting. […] In a third experiment, plants were sprayed with a rate of 0.05 lb ai quizalofop acre^−1 at 18 days after planting and with 0.11 lb ai quizalofop acre^−1 at 32 days after planting.

Test [2] has as its system Tx2783, an herbicide susceptible elite sorghum genotype. Nature of the test: Greenhouse herbicide spray selection, susceptible check. Format: in vivo.
Excerpt: as §1

Test [3] deals with wild sorghum populations from Bolivia. Nature of the test: Greenhouse herbicide spray selection, wild accessions. As to conditions: 83 wild populations. Format: in vivo.
Excerpt: as §1

Test [4] concerns F1 generation of cross ATx623 x Bol-71. Nature of the test: Mode of inheritance greenhouse spray test, F1 hybrid. It counts as in vivo, sorghum. As to conditions: 0.045 lb ai fluazifop-P acre^-1 at 14 days after planting; n=3. The method, then:
(§2) The mode of inheritance of herbicide tolerance was determined by planting seeds of Bol-71, F1 generation of cross ATx623 x Bol-71, and Pioneer 84G62 (herbicide susceptible control) in flats containing MetroMix 360 potting soil in a greenhouse using a randomized complete block design (n=3). The plants were sprayed with 0.045 lb ai fluazifop-P acre^−1 at 14 days after planting. Pioneer 84G62 died between 12-16 days after spraying.

For test [5], the system named is Bol-71. Nature of the test: Mode of inheritance greenhouse spray test, Bol-71. Format: in vivo, wild sorghum. The note with it: 0.045 lb ai fluazifop-P acre^-1 at 14 days after planting; n=3. The procedure: as §2
The test system of test [6] is Pioneer 84G62 (herbicide susceptible control). Nature of the test: Mode of inheritance greenhouse spray test, susceptible control. It counts as in vivo, sorghum. The note with it: 0.045 lb ai fluazifop-P acre^-1 at 14 days after planting; n=3. The procedure: as §2
Setting [7] is: 0.05 lb ai quizalofop acre^-1 at 18 days and 0.11 lb ai acre^-1 at 32 days after planting.
[8] abbreviates: 0.12 lb ai fluazifop-P acre^-1 at 18 days and 0.36 lb ai acre^-1 at 32 days after planting.

For the molecule `CC(Oc1ccc(Oc2cnc3cc(Cl)ccc3n2)cc1)C(=O)O` (stereo not drawn) [quizalofop], the tolerance to herbicide entry in test [1] (setting [7]) is recorded as “high levels of tolerance”. Also, the “plant response to spraying” value in test [2] (setting [7]) is recorded as “died”; in test [3] (setting [7]), “many of the wild sorghums died”.
`C[C@@H](Oc1ccc(Oc2ccc(C(F)(F)F)cn2)cc1)C(=O)O` [fluazifop-P]: the tolerance to herbicide entry in test [1] (setting [8]) is listed as “high levels of tolerance”. In addition, the herbicide damage result in test [4] and in test [5] was “no herbicide damage” in each case. Also, the “plant response to spraying” value in test [2] (setting [8]) is “died”; in test [3] (setting [8]), “many of the wild sorghums died”. Further, the “time at which plants died” value in test [6] is recorded as 12-16 days after spraying.
